# Laboratory results as given in patent US7029857B1, “Processes for obtaining compounds employing SNORF72 receptors” (H. Lundbeck A/S, priority 1999, dated 2006).
# “And” between values parts separate entries of the source, which are not always exact repeats. Equal values may be shown once. No end group written: not given here.
# Columns and labels:
# [1] = target: T1, rat SNORF72 (Rattus norvegicus, UniProt Q9ESQ4); assay: Intracellular Ca2+ release (FLIPR) in rat SNORF72-transfected COS-7 cells; format: cell-based; details: FIG. 22 at 100 nM
# T1 construct: corresponding to a predicted protein of 395 amino acids; expressed in transfected cells; host or cells: COS-7 (transient)
# Protocol: A typical protocol for the DEAE-dextran method as applied to COS-7 and HEK293 cells is described as follows. Cells to be used for transfection are split 24 hours prior to the transfection to provide flasks which are 70–80% confluent at the time of transfection. Briefly, 8 μg of receptor DNA plus 8 μg of any additional DNA needed (e.g. Gα protein expression vector, reporter construct, antibiotic resistance marker, mock vector, etc.) are added to 9 ml of complete DMEM plus DEAE-dextran mixture (10 mg/ml in PBS). Cells plated into a T225 flask (sub-confluent) are washed once with PBS and the DNA mixture is added to each flask. The cells are allowed to incubate for 30 minutes at 37° C., 5% CO2. Following the incubation, 36 ml of complete DMEM with 80 μM chloroquine is added to each flask and allowed to incubate an additional 3 hours. […]
# In another method, the measurement of intracellular Ca^2+ can also be performed on a 96-well (or higher) format and with alternative Ca^2+-sensitive indicators, preferred examples of these are: aequorin, Fluo-3, Fluo-4, Fluo-5, Calcium Green-1, Oregon Green, and 488 BAPTA. After activation of the receptors with agonist ligands the emission elicited by the change of intracellular Ca^2+ concentration can be measured by a luminometer, or a fluorescence imager; a preferred example of this is the fluorescence imager plate reader (FLIPR™, Molecular Devices). […]
# [2] = cited from earlier work
# [3] = target: T2, SNORF62 (Homo sapiens, UniProt Q9HB89); assay: Inositol phosphate (IP) release in SNORF62-transfected COS-7 cells; format: cell-based; design: The SNORF62 cDNA codes for a protein of 426 amino acids; expressed in transfected cells; host or cells: COS-7 (transient, DEAE-dextran)
# T2 sequence (Q9HB89 1-426): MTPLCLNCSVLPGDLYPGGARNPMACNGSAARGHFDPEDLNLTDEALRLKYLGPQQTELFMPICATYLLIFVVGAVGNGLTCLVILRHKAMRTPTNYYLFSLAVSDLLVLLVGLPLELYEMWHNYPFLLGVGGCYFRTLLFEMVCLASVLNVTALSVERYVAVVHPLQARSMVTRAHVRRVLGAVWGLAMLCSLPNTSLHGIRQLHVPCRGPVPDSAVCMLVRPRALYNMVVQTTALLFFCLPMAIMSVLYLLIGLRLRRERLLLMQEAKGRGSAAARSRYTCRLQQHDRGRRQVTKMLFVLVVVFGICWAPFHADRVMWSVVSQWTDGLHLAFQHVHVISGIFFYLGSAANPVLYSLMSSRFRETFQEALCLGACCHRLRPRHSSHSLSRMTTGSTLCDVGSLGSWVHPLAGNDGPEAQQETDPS
# Protocol: Human SNORF62 receptor-mediated activation and human SNORF72 receptor-mediated activation of the inositol phosphate (IP) second messenger pathways were assessed by radiometric measurement of IP products.
# For example, in a 96 well microplate format assay, COS-7 cells expressing the receptor of interest were plated at a density of 70,000 cells per well and allowed to incubate for 24 hours. The cells were then labeled with 0.5 μCi [^3H]myo-inositol overnight at 37° C., 5% CO2. Immediately before the assay, the medium was removed and replaced with 180 μL of Phosphate-Buffered Saline (PBS) containing 10 mM LiCl. The plates were then incubated for 20 min at 37° C., 5% CO2. Following the incubation, the cells were challenged with agonist (20 μl/well; 10× concentration) for 30 min at 37° C. The challenge was terminated by the addition of 100 μL of 5% v/v trichloroacetic acid, followed by incubation at 4° C. for greater than 30 minutes. Total IPs were isolated from the lysate by ion exchange chromatography. Briefly, the lysed contents of the wells were transferred to a Multiscreen HV filter plate (Millipore) containing Dowex AG1-X8 (200–400 mesh, formate form). The filter plates were prepared adding 100 μL of Dowex AG1-X8 suspension (50% v/v, water: resin) to each well. The filter plates were placed on a vacuum manifold to wash or elute the resin bed. Each well was first washed 2 times with 200 μl of 5 mM myo-inositol. Total [^3H]inositol phosphates were eluted with 75 μl of 1.2M ammonium formate/0.1M formic acid solution into 96-well plates. 200 μL of scintillation cocktail was added to each well, and the radioactivity was determined by liquid scintillation counting.
# [4] = tested on: rat adrenal gland slices; details: cited from earlier work
# [5] = target: T2, SNORF62; assay: Intracellular Ca2+ release (FLIPR) in SNORF62-transfected COS-7 cells; format: cell-based; design: The SNORF62 cDNA codes for a protein of 426 amino acids; expressed in transfected cells; host or cells: COS-7 (transient, DEAE-dextran); details: for maximum response / agonist efficacy at SNORF62: functional assay, data not shown
# Protocol: (§1) A typical protocol for the DEAE-dextran method as applied to COS-7 and HEK293 cells is described as follows. Cells to be used for transfection are split 24 hours prior to the transfection to provide flasks which are 70–80% confluent at the time of transfection. Briefly, 8 μg of receptor DNA plus 8 μg of any additional DNA needed (e.g. Gα protein expression vector, reporter construct, antibiotic resistance marker, mock vector, etc.) are added to 9 ml of complete DMEM plus DEAE-dextran mixture (10 mg/ml in PBS). Cells plated into a T225 flask (sub-confluent) are washed once with PBS and the DNA mixture is added to each flask. The cells are allowed to incubate for 30 minutes at 37° C., 5% CO2. Following the incubation, 36 ml of complete DMEM with 80 μM chloroquine is added to each flask and allowed to incubate an additional 3 hours. The medium is then aspirated and 24 ml of complete medium containing 10% DMSO for exactly 2 minutes and then aspirated. The cells are then washed 2 times with PBS and 30 ml of complete DMEM added to each flask. The cells are then allowed to incubate over night. The next day the cells are harvested by trypsinization and reseeded into 96 well plates.
# (§2) Cells expressing the receptor of interest are plated into clear, flat-bottom, black-walled 96-well plates (Costar) at a density of 80,000–150,000 cells per well and allowed to incubate for 48 hr at 5% CO2, 37° C. The growth medium is aspirated and 100 μL of loading medium containing Fluo-3 dye is added to each well. The loading medium contains: 20 mM HEPES (Sigma), 0.1% BSA (Sigma), dye/pluronic acid mixture (e.g. 1 mM Fluo-3/AM (Molecular Probes) and 10% pluronic acid (Molecular Probes) mixed immediately before use), and 2.5 mM probenecid (Sigma)(prepared fresh). The cells are allowed to incubate for about 1 hour at 5% CO2, 37° C.
# (§3) The compounds of interest are diluted in wash buffer (Hank's BSS (without phenol red), 20 mM HEPES, 2.5 mM probenecid) to a 4× final concentration and aliquoted into a clear v-bottom plate (Nunc). Following the dye incubation, the cells are washed 4 times to remove excess dye using a Denley plate washer. 100 μL final volume of wash buffer is then added to each cell well. Compounds are added to the cell plates and responses are measured using the FLIPR™ instrument. The data are then collected and analyzed using the FLIPR™ software and Graphpad Prism.
# (§4) COS-7 cells were transiently transfected with SNORF62, SNORF72 or vector DNA (mock) as described in Materials and Methods.
# [6] = tested on: rat uterus membranes; details: binding site in rat uterus; cited from earlier work
# [7] = tested on: isolated rat inner adrenocortical cells; details: absence of medullary cells; cited from earlier work
# [8] = target: T3, SNORF72 (Homo sapiens, UniProt Q9GZQ4, A395T); assay: Intracellular Ca2+ release (FLIPR) in SNORF72-transfected COS-7 cells; format: cell-based; details: SNORF72-transfected COS-7 cells, peptides at 300 nM (FIG. 8)
# T3 construct: expressed in transfected cells; host or cells: COS-7 (transient, DEAE-dextran)
# Protocol: as §1, §2, §3, §4
# [9] = target: T2, SNORF62; assay: Saturation binding of radioligands to SNORF62-transfected COS-7 membranes; design: The SNORF62 cDNA codes for a protein of 426 amino acids; expressed in transfected cells; host or cells: COS-7 (transient, DEAE-dextran); details: two values n=2
# Protocol: COS-7 cells were transiently transfected with SNORF62 and membranes were prepared as described in Materials and Methods. […] Results are representative of 2 experiments performed in duplicate.
# (§5) Cell membranes expressing the receptor protein of this invention are useful for certain types of assays including but not restricted to ligand binding assays, GTP-γ-S binding assays, and others. The specifics of preparing such cell membranes may in some cases be determined by the nature of the ensuing assay but typically involve harvesting whole cells and disrupting the cell pellet by sonication in ice cold buffer (e.g. 20 mM Tris HCl, mM EDTA, pH 7.4 at 4° C.). The resulting crude cell lysate is cleared of cell debris by low speed centrifugation at 200×g for 5 min at 4° C. […] Protein concentrations are determined by the method of Bradford (1976) using bovine serum albumin as a standard. […]
# (§6) Radioligand binding assays were performed by diluting membranes prepared from cells expressing the receptor in 50 mM Tris buffer (pH=7.4 at 0° C.) containing 0.1% bovine serum albumin (Sigma), aprotinin (0.005 mg/ml, Boehringer Mannheim) and bestatin (0.1 mM, Sigma) as protease inhibitors. […] After addition of Ready Safe (Beckman) scintillation fluid, bound radioactivity was quantitated using a Trilux (Wallac) scintillation counter (approximately 40% counting efficiency of bound counts). […]
# [10] = target: T3, SNORF72; assay: Saturation binding of radioligands to SNORF72-transfected COS-7 membranes; details: two values n=2
# Protocol: COS-7 cells were transiently transfected with SNORF72 and membranes were prepared as described in Materials and Methods. […] Results presented are representative of 2 experiments performed in duplicate.
# as §5, §6
# [11] = target: T3, SNORF72; assay: Displacement of [125I]rat NMU-23 binding in SNORF72-transfected COS-7 membranes; details: SNORF72 membranes, displacement of [125I]rat NMU-23; read-out: average pKi (converted)
# Protocol: (§7) The specifics of preparing such cell membranes may in some cases be determined by the nature of the ensuing assay but typically involve harvesting whole cells and disrupting the cell pellet by sonication in ice cold buffer (e.g. 20 mM Tris HCl, mM EDTA, pH 7.4 at 4° C.). The resulting crude cell lysate is cleared of cell debris by low speed centrifugation at 200×g for 5 min at 4° C. The cleared supernatant is then centrifuged at 40,000×g for 20 min at 4° C., and the resulting membrane pellet is washed by suspending in ice cold buffer and repeating the high speed centrifugation step. The final washed membrane pellet is resuspended in assay buffer. Protein concentrations are determined by the method of Bradford (1976) using bovine serum albumin as a standard. The membranes may be used immediately or frozen for later use.
# (§8) Radioligand binding assays were performed by diluting membranes prepared from cells expressing the receptor in 50 mM Tris buffer (pH=7.4 at 0° C.) containing 0.1% bovine serum albumin (Sigma), aprotinin (0.005 mg/ml, Boehringer Mannheim) and bestatin (0.1 mM, Sigma) as protease inhibitors. The final protein concentration in the assay was 12–40 μg/ml. […] The bound ligand was separated from free by filtration through GF/B filters presoaked in 0.5% polyethyleneimine (PEI), using a Tomtec (Wallac) vacuum filtration device. After addition of Ready Safe (Beckman) scintillation fluid, bound radioactivity was quantitated using a Trilux (Wallac) scintillation counter (approximately 40% counting efficiency of bound counts). Data was fit to non-linear curves using GraphPad Prism.
# (§9) In this manner, agonist or antagonist compounds that bind to the receptor may be identified as they inhibit the binding of the labeled ligand to the membrane protein of cells expressing the said receptor. Non-specific binding was defined as the amount of radioactivity remaining after incubation of membrane protein in the presence of 100 nM of the unlabeled peptide corresponding to the radioligand used. In equilibrium saturation binding assays membrane preparations or intact cells transfected with the receptor are incubated in the presence of increasing concentrations of the labeled compound to determine the binding affinity of the labeled ligand.
# [12] = target: T2, SNORF62; assay: Displacement of [125I]rat NMU-23 binding in SNORF62-transfected COS-7 membranes; design: The SNORF62 cDNA codes for a protein of 426 amino acids; expressed in transfected cells; host or cells: COS-7 (transient, DEAE-dextran); details: SNORF62 membranes, displacement of [125I]rat NMU-23; read-out: average pKi (converted)
# Protocol: as §7, §8, §9
# [13] = tested on: isolated rat uterus preparations; details: read-out: EC50 concentration for contraction; cited from earlier work
# [14] = rats, single subcutaneous injection 6 μg/100 g body weight
# T3 sequence (Q9GZQ4 whole entry A395T): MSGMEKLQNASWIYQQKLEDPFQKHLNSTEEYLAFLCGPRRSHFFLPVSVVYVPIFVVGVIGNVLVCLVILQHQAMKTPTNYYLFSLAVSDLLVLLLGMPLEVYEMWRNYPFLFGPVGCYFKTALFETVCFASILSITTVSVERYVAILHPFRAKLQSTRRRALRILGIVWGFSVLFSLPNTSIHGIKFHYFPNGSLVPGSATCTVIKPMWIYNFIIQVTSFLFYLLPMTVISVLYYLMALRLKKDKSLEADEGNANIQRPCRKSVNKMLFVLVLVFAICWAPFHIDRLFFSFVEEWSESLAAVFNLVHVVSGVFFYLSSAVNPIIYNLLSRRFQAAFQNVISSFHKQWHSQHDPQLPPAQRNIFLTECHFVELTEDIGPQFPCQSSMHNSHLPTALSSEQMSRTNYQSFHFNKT
# T1 sequence (Q9ESQ4 whole entry): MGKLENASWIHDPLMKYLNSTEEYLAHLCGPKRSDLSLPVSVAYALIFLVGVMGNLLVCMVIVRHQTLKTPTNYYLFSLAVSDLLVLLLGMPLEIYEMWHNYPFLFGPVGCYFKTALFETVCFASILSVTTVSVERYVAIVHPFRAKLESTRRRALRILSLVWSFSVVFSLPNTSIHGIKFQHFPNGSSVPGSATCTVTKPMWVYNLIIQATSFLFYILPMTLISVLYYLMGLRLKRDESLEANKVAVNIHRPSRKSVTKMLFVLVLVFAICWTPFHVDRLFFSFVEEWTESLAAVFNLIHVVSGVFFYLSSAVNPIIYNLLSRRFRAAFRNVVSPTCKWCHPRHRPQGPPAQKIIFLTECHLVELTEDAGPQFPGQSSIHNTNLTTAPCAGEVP
increases in intracellular Ca2+ [1],agonist efficacy in IP release assay [3],maximum response / agonist efficacy at SNORF62 [5],stimulation of intracellular Ca2+ release [8],Ki [11] [nM],"EC50 ([5]; stimulation of Ca2+ release, SNORF62-transfected COS-7 cells, n = 2-7 (Table 1A)) [nM]",Ki [12] [nM],Compound,stress-evoked rise in corticosterone ([2]; rats treated for 6 days),"time during which ACTH blood concentrations are elevated [2, 14] [h]","time plasma corticosterone levels remain elevated [2, 14] [h]",adrenal weight and the number of cells in the zona reticularis ([2]; repeated administration),basal corticosterone and pregnenolone steroid secretion [4],IC50 [6] [nM],basal corticosterone secretion [7],Bmax [9],Bmax [10],EC50 [13] [nM]
robust increases,full agonists,full agonists,stimulated,–,–,–,"CC(C)C[C@H](NC(=O)[C@H](Cc1ccccc1)NC(=O)[C@@H](N)Cc1ccc(O)cc1)C(=O)N[C@@H](Cc1ccccc1)C(=O)N[C@@H](CCCNC(=N)N)C(=O)N1CCC[C@H]1C(=O)N[C@@H](CCCNC(=N)N)C(=O)N[C@@H](CC(N)=O)C(N)=O [porcine NMU-8, Y F L F R P R N—NH2]",absent,3 to 12,24,decreased,markedly increased,60,without effect,–,–,–
–,–,–,–,–,–,–,"[^125I]rat NMU-23: radioiodinated rat NMU-23 radioligand (NEN, specific activity 2200 Ci/mmole) (YKVNEYQGPVAPSGGFFLFRPRN-NH2; ends and bridges not checked; also: radioiodinated (125I), position not given here)",–,–,–,–,–,–,–,16.5 pmol/mg protein and 9.9 pmol/mg protein,8.0 pmol/mg protein and 8.2 pmol/mg protein,–
robust increases,full agonists,full agonists,stimulated,1,2.1 ± 0.5,0.398,"YKVNEYQGPVAPSGGFFLFRPRN-NH2 [rat NMU-23, YKVNEYQGPVAPSGGFFLFRPRN—NH2]",–,–,–,–,–,1,directly decreased,–,–,0.2
